# In the supplement of paper PMC10307832:
# Compound: COc1cc2nc(N3CCCN(C)CC3)nc(NC3CCN(Cc4ccccc4)CC3)c2cc1OC + COc1cccc2cc(-c3nc([C@H]4CC[C@H](C(=O)O)CC4)n4ncnc(N)c34)[nH]c12 [OSI-027] (partner 0.5 µM)
# Assay: relative viability (nuclei count vs DMSO), 5 days (fraction); higher = more cells survive
# Details: first compound 6.325 µM
# Procedure, shortened: (§1)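 Each reported value is a median over duplicate plates. It expresses relative viability: treated-well nuclei count divided by vehicle-well nuclei count. Lung cancer cell lines in 1536-well plates were dosed by pin tool a day after seeding, alone with one drug or with a fixed anchor-drug dose plus five library-drug doses (not always all listed) in √10 steps, and nuclei were counted after 5 days.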
row,Cell Line,relative viability
1,RERF-LC-KJ,0.383
2,ABC-1,0.336
3,NCI-H358,0.626
4,NCI-H650,0.329
5,PC-3 [JPC-3],0.764

# Compound: COc1cc2nc(N3CCCN(C)CC3)nc(NC3CCN(Cc4ccccc4)CC3)c2cc1OC + CC(=O)c1c(C)c2cnc(Nc3ccc(N4CCNCC4)cn3)nc2n(C2CCCC2)c1=O [Palbociclib] (partner 0.5 µM)
# Assay: as above
# Details: first compound 0.2 µM
# Procedure, shortened: as §1
row,Cell Line,relative viability
1,LXF-289,0.583
2,NCI-H23,0.475
3,NCI-H647,0.336
4,CAL-12T,0.4
5,NCI-H1651,0.518
6,EPLC-272H,0.326
7,NCI-H2228,0.63
8,NCI-H1792,0.637
9,NCI-H1355,0.404
10,NCI-H3122,0.207
11,NCI-H1437,0.29
12,NCI-H1755,0.446
13,NCI-H2023,0.379
14,HCC-15,0.741
15,NCI-H1793,0.32
16,PC-14,0.536
17,EKVX,0.407
18,LC-2-ad,0.509
19,NCI-H1944,0.327
20,NCI-H1975,0.567
21,RERF-LC-KJ,0.982
22,ABC-1,0.718
23,NCI-H358,0.147
24,NCI-H650,0.394
25,PC-3 [JPC-3],0.542

# Same assay, conditions: first compound 0.6325 µM
row,Cell Line,relative viability
1,LXF-289,0.603
2,NCI-H23,0.522
3,NCI-H647,0.457
4,CAL-12T,0.55
5,NCI-H1651,0.5
6,EPLC-272H,0.322
7,NCI-H2228,0.808
8,NCI-H1792,0.654
9,NCI-H1355,0.379
10,NCI-H3122,0.21
11,NCI-H1437,0.319
12,NCI-H1755,0.452
13,NCI-H2023,0.337
14,HCC-15,0.802
15,NCI-H1793,0.312
16,PC-14,0.477
17,EKVX,0.412
18,LC-2-ad,0.533
19,NCI-H1944,0.349
20,NCI-H1975,0.603
21,RERF-LC-KJ,1.11
22,ABC-1,0.682
23,NCI-H358,0.118
24,NCI-H650,0.307
25,PC-3 [JPC-3],0.591

# Same assay, conditions: first compound 2 µM
row,Cell Line,relative viability
1,LXF-289,0.615
2,NCI-H23,0.521
3,NCI-H647,0.348
4,CAL-12T,0.482
5,NCI-H1651,0.515
6,EPLC-272H,0.316
7,NCI-H2228,0.835
8,NCI-H1792,0.609
9,NCI-H1355,0.423
10,NCI-H3122,0.216
11,NCI-H1437,0.32
12,NCI-H1755,0.393
13,NCI-H2023,0.4
14,HCC-15,0.83
15,NCI-H1793,0.316
16,PC-14,0.446
17,EKVX,0.395
18,LC-2-ad,0.444
19,NCI-H1944,0.326
20,NCI-H1975,0.826
21,RERF-LC-KJ,1.13
22,ABC-1,0.754
23,NCI-H358,0.141
24,NCI-H650,0.31
25,PC-3 [JPC-3],0.578

# Same assay, conditions: first compound 6.325 µM
row,Cell Line,relative viability
1,LXF-289,0.586
2,NCI-H23,0.415
3,NCI-H647,0.213
4,CAL-12T,0.46
5,NCI-H1651,0.522
6,EPLC-272H,0.346
7,NCI-H2228,0.509
8,NCI-H1792,0.685
9,NCI-H1355,0.386
10,NCI-H3122,0.209
11,NCI-H1437,0.279
12,NCI-H1755,0.399
13,NCI-H2023,0.0878
14,HCC-15,0.69
15,NCI-H1793,0.292
16,PC-14,0.0369
17,EKVX,0.301
18,LC-2-ad,0.52
19,NCI-H1944,0.321
20,NCI-H1975,0.586
21,RERF-LC-KJ,0.909
22,ABC-1,0.6
23,NCI-H358,0.139
24,NCI-H650,0.295
25,PC-3 [JPC-3],0.468
